# Measured values taken from ChEMBL document CHEMBL4483862, “Open-source discovery of chemical leads for next-generation chemoprotective antimalarials” (2018).
# System: Plasmodium berghei
# Experiment: Luciferase/luciferin-expressing antifolate-resistant parasites were used to infect a culture of HepG2 cells that were pre-incubated with compounds. Infected hepatocytes emit light due to the luciferase reaction. Assay results are presented as the percent inhibition of light emission compared to control. […]
# Format: functional
# Conditions: sporozoite; for IC90: read-out: LUCIFERASE INFECTION ASSAY - IC90
Structure (SMILES),IC90,further results
Nc1nc2ccccc2n1Cc1ccc(Cl)cc1,5.46 µM,"IC50 (HEPG2TOX_HILL_SLOPE 1, HEPG2TOX_R_SQUARED 0.963, PBLUC_HILL_SLOPE 11.6, PBLUC_R_SQUARED 0.65, read-out: LUCIFERASE INFECTION ASSAY - IC50): 4.52 µM"
CC1CC(C)CN(C2=CC(=[N+]3CCCC3)CC(C)(C)C2)C1 (centres undefined),2.02 µM,"IC50 (HEPG2TOX_HILL_SLOPE 0.983, HEPG2TOX_R_SQUARED 0.985, PBLUC_HILL_SLOPE 2.02, PBLUC_R_SQUARED 0.664, read-out: LUCIFERASE INFECTION ASSAY - IC50): 0.682 µM"
CNc1nnc(Sc2nc(CN3CCCCC3)nc3scc(-c4ccccc4)c23)s1,3.67 µM,"IC50 (HEPG2TOX_HILL_SLOPE 0.991, HEPG2TOX_R_SQUARED 0.829, PBLUC_HILL_SLOPE 15.5, PBLUC_R_SQUARED 0.389, read-out: LUCIFERASE INFECTION ASSAY - IC50): 3.19 µM"
OCc1ccc(-c2cnc3cnc(/C=C/c4ccccc4)cn23)cc1,0.659 µM,"IC50 (HEPG2TOX_HILL_SLOPE 0.99, HEPG2TOX_R_SQUARED 0.698, PBLUC_HILL_SLOPE 2.37, PBLUC_R_SQUARED 0.796, read-out: LUCIFERASE INFECTION ASSAY - IC50): 0.261 µM"
COc1ccc2c(c1)CCCN2C(=O)c1occc1C,1.23 µM,"IC50 (HEPG2TOX_HILL_SLOPE 0.966, HEPG2TOX_R_SQUARED 0.937, PBLUC_HILL_SLOPE 15.5, PBLUC_R_SQUARED 0.354, read-out: LUCIFERASE INFECTION ASSAY - IC50): 1.07 µM"
Cc1cc(=O)oc2cc(Oc3nc(CN4CCOCC4)nc4sc5c(c34)CCCC5)c(Cl)cc12,> 10 µM,"IC50 (HEPG2TOX_HILL_SLOPE 1.03, HEPG2TOX_R_SQUARED 0.724, read-out: LUCIFERASE INFECTION ASSAY - IC50): > 10 µM"
COc1ccc(-c2cnc3cnc(-c4cnn(C)c4)cn23)cc1,> 10.8 µM,"IC50 (HEPG2TOX_HILL_SLOPE 0.995, HEPG2TOX_R_SQUARED 0.66, PBLUC_HILL_SLOPE 1.64, PBLUC_R_SQUARED 0.772, read-out: LUCIFERASE INFECTION ASSAY - IC50): 3.01 µM"
Cn1cc(/C=C/C(=O)Nc2ncc(Cc3ccccc3)s2)cn1,2.15 µM,"IC50 (HEPG2TOX_HILL_SLOPE 0.97, HEPG2TOX_R_SQUARED 0.894, PBLUC_HILL_SLOPE 1.67, PBLUC_R_SQUARED 0.671, read-out: LUCIFERASE INFECTION ASSAY - IC50): 0.578 µM"
Cc1cc(C(=O)NN2Cc3ccccc3C2=N)c(C)n1-c1ccccc1,> 10 µM,"IC50 (HEPG2TOX_HILL_SLOPE 1.03, HEPG2TOX_R_SQUARED 0.677, read-out: LUCIFERASE INFECTION ASSAY - IC50): > 10 µM"
Cn1ncc(C#N)c1NC(=O)c1cccc(Oc2ccccc2)c1,8.69 µM,"IC50 (HEPG2TOX_HILL_SLOPE 1.03, HEPG2TOX_R_SQUARED 0.84, PBLUC_HILL_SLOPE 1.64, 1.43, PBLUC_R_SQUARED 0.588, 0.656, read-out: LUCIFERASE INFECTION ASSAY - IC50): 2.85 µM"
CC(C)(C)c1cc2nc(C(F)(F)F)cc(SCCOC(=O)Nc3cccc(Cl)c3)n2n1,> 6.98 µM,"IC50 (HEPG2TOX_HILL_SLOPE 1.03, HEPG2TOX_R_SQUARED 0.0682, read-out: LUCIFERASE INFECTION ASSAY - IC50): > 6.98 µM"
CCOc1cc(/C=C/C(=O)c2ccc(-c3ccccc3)cc2)ccc1OCC(=O)N(C)C,> 10 µM,"IC50 (HEPG2TOX_HILL_SLOPE 0.976, HEPG2TOX_R_SQUARED 0.779, read-out: LUCIFERASE INFECTION ASSAY - IC50): > 10 µM"
O=C(Nc1nc2ccc([N+](=O)[O-])cc2s1)c1cccc(Cl)c1,> 10 µM,"IC50 (HEPG2TOX_HILL_SLOPE 0.963, HEPG2TOX_R_SQUARED 0.986, PBLUC_HILL_SLOPE 0.779, PBLUC_R_SQUARED 0.754, read-out: LUCIFERASE INFECTION ASSAY - IC50): 0.754 µM"
COc1ccc(-n2c(C)cc(C(=O)Cn3ncc(Cl)c(Cl)c3=O)c2C)cc1,> 10 µM,"IC50 (HEPG2TOX_HILL_SLOPE 0.989, HEPG2TOX_R_SQUARED 0.688, read-out: LUCIFERASE INFECTION ASSAY - IC50): > 10 µM"
O=C1CCCN1CCCNc1cc(-c2ccccc2)c2ccccc2n1,4.46 µM,"IC50 (HEPG2TOX_HILL_SLOPE 0.987, HEPG2TOX_R_SQUARED 0.959, PBLUC_HILL_SLOPE 13.1, PBLUC_R_SQUARED 0.545, read-out: LUCIFERASE INFECTION ASSAY - IC50): 3.77 µM"
CCCCNC(=O)c1c(NC(=O)c2cccc(Cl)c2Cl)nc2ccc(C)cn12,1.27 µM,"IC50 (HEPG2TOX_HILL_SLOPE 1.01, HEPG2TOX_R_SQUARED 0.774, PBLUC_HILL_SLOPE 4.09, PBLUC_R_SQUARED 0.588, read-out: LUCIFERASE INFECTION ASSAY - IC50): 0.743 µM"

Structure (SMILES),IC90,further results
CC1=C(C(=O)OCc2ccccc2)C(c2ccc(Cl)c([N+](=O)[O-])c2)n2nnnc2N1 (centres undefined),> 10 µM,"IC50 (HEPG2TOX_HILL_SLOPE 0.964, HEPG2TOX_R_SQUARED 0.562, read-out: LUCIFERASE INFECTION ASSAY - IC50): > 10 µM"
CC(=O)Nc1cccc(-c2cnc3ccc(-c4ccc(S(C)(=O)=O)cc4)nn23)c1,9.62 µM,"IC50 (HEPG2TOX_HILL_SLOPE 0.982, HEPG2TOX_R_SQUARED 0.906, PBLUC_HILL_SLOPE 3.7, PBLUC_R_SQUARED 0.22, read-out: LUCIFERASE INFECTION ASSAY - IC50): 5.31 µM"
COc1cccc(-c2ccc3ncc(-c4ccc(NC(C)=O)cc4)n3n2)c1,3.39 µM,"IC50 (HEPG2TOX_HILL_SLOPE 0.992, HEPG2TOX_R_SQUARED 0.946, PBLUC_HILL_SLOPE 0.779, PBLUC_R_SQUARED 0.716, read-out: LUCIFERASE INFECTION ASSAY - IC50): 0.202 µM"
COc1ccc(NC(=O)c2cc(-c3ccccc3)n(-c3ccccc3)c2C)cc1,4.38 µM,"IC50 (HEPG2TOX_HILL_SLOPE 0.976, HEPG2TOX_R_SQUARED 0.937, PBLUC_HILL_SLOPE 1.32, PBLUC_R_SQUARED 0.59, read-out: LUCIFERASE INFECTION ASSAY - IC50): 0.834 µM"
O=c1ccc(-c2nc3c4c5c(sc4ncn3n2)CCCCC5)n[nH]1,8.47 µM,"IC50 (HEPG2TOX_HILL_SLOPE 0.965, HEPG2TOX_R_SQUARED 0.912, PBLUC_HILL_SLOPE 1.19, PBLUC_R_SQUARED 0.691, read-out: LUCIFERASE INFECTION ASSAY - IC50): 1.33 µM"
CN(C)CCNC(=O)c1cccc(-c2cnc3ccc(-c4cccc(CO)c4)nn23)c1,1.58 µM,"IC50 (HEPG2TOX_HILL_SLOPE 0.999, HEPG2TOX_R_SQUARED 0.943, PBLUC_HILL_SLOPE 3.71, PBLUC_R_SQUARED 0.586, read-out: LUCIFERASE INFECTION ASSAY - IC50): 0.873 µM"
Cc1nc(/C=C/C(=O)Nc2nc3ccccc3[nH]2)cs1,1.37 µM,"IC50 (HEPG2TOX_HILL_SLOPE 0.99, HEPG2TOX_R_SQUARED 0.611, PBLUC_HILL_SLOPE 0.644, PBLUC_R_SQUARED 0.42, read-out: LUCIFERASE INFECTION ASSAY - IC50): 0.0451 µM"
COc1cccc(Nc2nccc3[nH]c(-c4cc(OC)cc(OC)c4)cc23)c1,1.74 µM,"IC50 (HEPG2TOX_HILL_SLOPE 0.988, HEPG2TOX_R_SQUARED 0.934, PBLUC_HILL_SLOPE 2.38, PBLUC_R_SQUARED 0.617, read-out: LUCIFERASE INFECTION ASSAY - IC50): 0.69 µM"
O=C(NC1CCCc2ccccc21)c1ccc2c(c1)S(=O)(=O)c1ccccc1C2=O (centres undefined),> 10 µM,"IC50 (HEPG2TOX_HILL_SLOPE 1, HEPG2TOX_R_SQUARED 0.0756, read-out: LUCIFERASE INFECTION ASSAY - IC50): > 10 µM"
NS(=O)(=O)c1ccc(CNC(=O)c2ccc(Cn3cccn3)cc2)s1,> 10 µM,"IC50 (HEPG2TOX_HILL_SLOPE 0.983, HEPG2TOX_R_SQUARED 0.0206, read-out: LUCIFERASE INFECTION ASSAY - IC50): > 10 µM"
O=c1c2cc(Cl)cc(Cl)c2nc(-c2cccc(C(F)(F)F)c2)n1O,> 8.8 µM,"IC50 (HEPG2TOX_HILL_SLOPE 1.01, HEPG2TOX_R_SQUARED 0.454, PBLUC_HILL_SLOPE 14.5, PBLUC_R_SQUARED 0.382, read-out: LUCIFERASE INFECTION ASSAY - IC50): 8.11 µM"
CC(C)N1CCCc2cc(CN3CCC4(CC3)C(=O)N(CCCc3ccncc3)C(=O)N4C)ccc21,> 6.74 µM,"IC50 (HEPG2TOX_HILL_SLOPE 0.974, HEPG2TOX_R_SQUARED 0.954, PBLUC_HILL_SLOPE 1.42, PBLUC_R_SQUARED 0.506, read-out: LUCIFERASE INFECTION ASSAY - IC50): 3.48 µM"
O=C(Nc1ccc2c(c1)OCO2)C1CCN(c2ccnc3cc(Cl)ccc23)CC1,8.1 µM,"IC50 (HEPG2TOX_HILL_SLOPE 0.967, HEPG2TOX_R_SQUARED 0.942, PBLUC_HILL_SLOPE 2.72, PBLUC_R_SQUARED 0.6, read-out: LUCIFERASE INFECTION ASSAY - IC50): 3.61 µM"
COc1cc2c(cc1OC)C(c1cccs1)N(C(=O)Nc1cc(C)on1)CC2 (centres undefined),2.7 µM,"IC50 (HEPG2TOX_HILL_SLOPE 0.982, HEPG2TOX_R_SQUARED 0.92, PBLUC_HILL_SLOPE 3.46, PBLUC_R_SQUARED 0.391, read-out: LUCIFERASE INFECTION ASSAY - IC50): 1.43 µM"
c1ccn2c(Sc3ncnc4ccsc34)nnc2c1,> 10 µM,"IC50 (HEPG2TOX_HILL_SLOPE 1.03, HEPG2TOX_R_SQUARED 0.779, PBLUC_HILL_SLOPE 16.5, PBLUC_R_SQUARED 0.198, read-out: LUCIFERASE INFECTION ASSAY - IC50): 9.21 µM"
Cc1ccccc1-c1cccc(CN2CCC3(CC2)C(=O)N(CCCc2ccncc2)C(=O)N3C)c1,2.53 µM,"IC50 (HEPG2TOX_HILL_SLOPE 0.98, HEPG2TOX_R_SQUARED 0.922, PBLUC_HILL_SLOPE 14, PBLUC_R_SQUARED 0.565, read-out: LUCIFERASE INFECTION ASSAY - IC50): 2.16 µM"
